Five compounds from US9474790B2, “Stable, protracted GLP-1/glucagon receptor co-agonists for medical use” (Novo Nordisk A/S, priority 2013, dated 2016) can be followed below.

Numbered stars: 1 amine (or outer) side, 2 acyl side, 3 side chain; on linkers, the order of the positions; unused ones are H or OH. Bridge positions count the residues as written; N and C are the ends. Square brackets hold non-standard residues; d marks the D form. Side chains are listed from the residue outwards. Peptide text beside a SMILES is read from it. I, II: the chains in the order shown. * marks the point of attachment. C18 diacid = O=C(O)CCCCCCCCCCCCCCCCC(=O)*; γGlu = O=C(O)[C@H](CCC(=O)[*:2])N[*:1]; Ac4c = NC1(C(=O)O)CCC1; AEEA = NCCOCCOCC(=O)O; Aib = CC(C)(N)C(=O)O

A short description of the series: Thioflavin T (ThT) fibrillation assay for physical stability. It is filed as physicochemical. The settings on record: 250 μM in 10 mM HEPES buffer, pH 7.5, 37° C., shaking 960 rpm. Summed up: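 Fibrillation was followed by ThT (1 μM) fluorescence every 20 min, 444/485 nm, for 250 μM peptide in 10 mM HEPES pH 7.5 shaken at 960 rpm, 37° C. Lag time (t0−2τ) and apparent rate constant (1/τ) come from a sigmoidal fit. Recovery is % of initial concentration remaining soluble after centrifugation and filtration (RP-HPLC).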
In turn, `CC(C)C[C@H](NC(=O)[C@H](Cc1ccc(O)cc1)NC(=O)[C@H](CCCCN)NC(=O)[C@H](CO)NC(=O)[C@H](CC(C)C)NC(=O)[C@H](CC(=O)O)NC(=O)[C@H](CO)NC(=O)[C@@H](NC(=O)[C@H](Cc1ccccc1)NC(=O)[C@@H](NC(=O)CNC(=O)[C@H](Cc1c[nH]cn1)NC(=O)C(C)(C)NC(=O)[C@@H](N)Cc1c[nH]cn1)[C@@H](C)O)[C@@H](C)O)C(=O)N[C@@H](CCC(=O)O)C(=O)N[C@@H](CO)C(=O)N[C@@H](CCCNC(=N)N)C(=O)N[C@@H](CCCNC(=N)N)C(=O)N[C@@H](C)C(=O)N[C@@H](CCCNC(=N)N)C(=O)N[C@@H](CCC(=O)O)C(=O)N[C@@H](Cc1ccccc1)C(=O)N[C@H](C(=O)N[C@@H](CCC(N)=O)C(=O)N[C@@H](Cc1c[nH]c2ccccc12)C(=O)N[C@@H](CC(C)C)C(=O)N[C@@H](CC(C)C)C(=O)N[C@@H](CCCCNC(=O)CC[C@H](NC(=O)COCCOCCNC(=O)COCCOCCNC(=O)CC[C@H](NC(=O)CC[C@H](NC(=O)CCCCCCCCCCCCCCCCC(=O)O)C(=O)O)C(=O)O)C(=O)O)C(=O)N[C@H](C(N)=O)[C@@H](C)O)C(C)C` [Example 30, N^ε28-[(4S)-4-carboxy-4-[[2-[2-[2-[[2-[2-[2-[[(4S)-4-carboxy-4-[[(4S)-4-carboxy-4-(17-carboxyheptadecanoylamino)butanoyl]amino]butanoyl]amino]ethoxy]ethoxy]acetyl]amino]ethoxy]ethoxy]acetyl]amino]butanoyl]-[Aib2,His3,Leu10,Glu15,Arg20,Glu21,Leu27,Lys28]-Glucagon amide] (H-H[Aib]HGTFTSDLSKYLESRRAREFVQWLLK([γGlu-AEEA-AEEA-γGlu-γGlu-C18 diacid])T-NH2; N-terminus assumed) returned a THT assay Lag time (Ex. 76) of 45 h.

On to `CC(C)C[C@H](NC(=O)[C@H](Cc1c[nH]c2ccccc12)NC(=O)[C@H](C)NC(=O)[C@@H](NC(=O)[C@H](Cc1ccccc1)NC(=O)[C@H](CCC(=O)O)NC(=O)[C@H](CCCNC(=N)N)NC(=O)[C@H](C)NC(=O)[C@H](CCCNC(=N)N)NC(=O)[C@H](CCCNC(=N)N)NC(=O)[C@H](CO)NC(=O)[C@H](CCC(=O)O)NC(=O)[C@H](CC(C)C)NC(=O)[C@H](Cc1ccc(O)cc1)NC(=O)[C@H](CCCCN)NC(=O)[C@H](CO)NC(=O)[C@H](CC(C)C)NC(=O)[C@H](CC(=O)O)NC(=O)[C@H](CO)NC(=O)[C@@H](NC(=O)[C@H](Cc1ccccc1)NC(=O)[C@@H](NC(=O)CNC(=O)[C@H](Cc1c[nH]cn1)NC(=O)C(C)(C)NC(=O)[C@@H](N)Cc1c[nH]cn1)[C@@H](C)O)[C@@H](C)O)C(C)C)C(=O)N[C@@H](CC(C)C)C(=O)N[C@@H](CCCCNC(=O)CC[C@H](NC(=O)COCCOCCNC(=O)COCCOCCNC(=O)CC[C@H](NC(=O)CC[C@H](NC(=O)CCCCCCCCCCCCCCCCC(=O)O)C(=O)O)C(=O)O)C(=O)O)C(=O)N[C@H](C(N)=O)[C@@H](C)O` [Example 31, N^ε28-[(4S)-4-carboxy-4-[[2-[2-[2-[[2-[2-[2-[[(4S)-4-carboxy-4-[[(4S)-4-carboxy-4-(17-carboxyheptadecanoylamino)butanoyl]amino]butanoyl]amino]ethoxy]ethoxy]acetyl]amino]ethoxy]ethoxy]acetyl]amino]butanoyl]-[Aib2,His3,Leu10,Glu15,Arg20,Glu21,Ala24,Leu27, Lys28]-Glucagon amide] (H-H[Aib]HGTFTSDLSKYLESRRAREFVAWLLK([γGlu-AEEA-AEEA-γGlu-γGlu-C18 diacid])T-NH2; N-terminus assumed), for which the THT assay Lag time (Ex. 76) is 45 h.

Compound `CC(C)C[C@H](NC(=O)[C@H](Cc1ccc(O)cc1)NC(=O)[C@H](CCCCN)NC(=O)[C@H](CO)NC(=O)[C@H](CC(C)C)NC(=O)[C@H](CC(=O)O)NC(=O)[C@H](CO)NC(=O)[C@@H](NC(=O)[C@H](Cc1ccccc1)NC(=O)[C@@H](NC(=O)CNC(=O)[C@H](Cc1c[nH]cn1)NC(=O)C(C)(C)NC(=O)[C@@H](N)Cc1c[nH]cn1)[C@@H](C)O)[C@@H](C)O)C(=O)N[C@@H](CCC(=O)O)C(=O)N[C@@H](CO)C(=O)N[C@@H](CCCNC(=N)N)C(=O)N[C@@H](CCCNC(=N)N)C(=O)N[C@@H](C)C(=O)N[C@@H](CCCNC(=N)N)C(=O)N[C@@H](CCC(=O)O)C(=O)N[C@@H](Cc1ccccc1)C(=O)N[C@H](C(=O)N[C@@H](CCC(N)=O)C(=O)N[C@@H](Cc1c[nH]c2ccccc12)C(=O)N[C@@H](CC(C)C)C(=O)N[C@@H](CC(C)C)C(=O)N[C@@H](CCCCNC(=O)CC[C@H](NC(=O)CC[C@H](NC(=O)COCCOCCNC(=O)COCCOCCNC(=O)CC[C@H](NC(=O)CCCCCCCCCCCCCCCCC(=O)O)C(=O)O)C(=O)O)C(=O)O)C(=O)N[C@H](C(N)=O)[C@@H](C)O)C(C)C` [Example 33, N^ε28-[(4S)-4-carboxy-4-[[(4S)-4-carboxy-4-[[2-[2-[2-[[2-[2-[2-[[(4S)-4-carboxy-4-(17-carboxyheptadecanoylamino)butanoyl]amino]ethoxy]ethoxy]acetyl]amino]ethoxy]ethoxy]acetyl]amino]butanoyl]amino]butanoyl]-[Aib2,His3,Leu10,Glu15,Arg20,Glu21,Leu27,Lys28]-Glucagon amide] (H-H[Aib]HGTFTSDLSKYLESRRAREFVQWLLK([γGlu-γGlu-AEEA-AEEA-γGlu-C18 diacid])T-NH2; N-terminus assumed) displayed a THT assay Lag time (Ex. 76) of 45 h.

Compound `CC(C)C[C@H](NC(=O)[C@H](Cc1ccc(O)cc1)NC(=O)[C@H](CCCCN)NC(=O)[C@H](CO)NC(=O)[C@H](CC(C)C)NC(=O)[C@H](CC(=O)O)NC(=O)[C@H](CO)NC(=O)[C@@H](NC(=O)[C@H](Cc1ccccc1)NC(=O)[C@@H](NC(=O)CNC(=O)[C@H](Cc1c[nH]cn1)NC(=O)C(C)(C)NC(=O)[C@@H](N)Cc1c[nH]cn1)[C@@H](C)O)[C@@H](C)O)C(=O)N[C@@H](CCC(=O)O)C(=O)N[C@@H](CO)C(=O)N[C@@H](CCCCN)C(=O)N[C@@H](CCCNC(=N)N)C(=O)N[C@@H](C)C(=O)N[C@@H](CCCNC(=N)N)C(=O)N[C@@H](CCC(=O)O)C(=O)N[C@@H](Cc1ccccc1)C(=O)N[C@H](C(=O)N[C@@H](CCC(N)=O)C(=O)N[C@@H](Cc1c[nH]c2ccccc12)C(=O)N[C@@H](CC(C)C)C(=O)N[C@@H](CC(C)C)C(=O)N[C@@H](CCCCNC(=O)CC[C@H](NC(=O)CC[C@H](NC(=O)CC[C@H](NC(=O)CCCCCCCCCCCCCCCCC(=O)O)C(=O)O)C(=O)O)C(=O)O)C(=O)N[C@H](C(N)=O)[C@@H](C)O)C(C)C` [Example 34, N^ε28-[(4S)-4-carboxy-4-[[(4S)-4-carboxy-4-[[(4S)-4-carboxy-4-(17-carboxyheptadecanoylamino)butanoyl]amino]butanoyl]amino]butanoyl]-[Aib2,His3,Leu10,Glu15,Lys17,Arg20,Glu21,Leu27,Lys28]-Glucagon amide] (H-H[Aib]HGTFTSDLSKYLESKRAREFVQWLLK([γGlu-γGlu-γGlu-C18 diacid])T-NH2; N-terminus assumed) yielded a THT assay Lag time (Ex. 76) of 45 h.

Compound `CC(C)C[C@H](NC(=O)[C@H](Cc1ccc(O)cc1)NC(=O)[C@H](CCCCN)NC(=O)[C@H](CO)NC(=O)[C@H](CC(C)C)NC(=O)[C@H](CC(=O)O)NC(=O)[C@H](CO)NC(=O)[C@@H](NC(=O)[C@H](Cc1ccccc1)NC(=O)[C@@H](NC(=O)CNC(=O)[C@H](Cc1c[nH]cn1)NC(=O)C1(NC(=O)[C@@H](N)Cc2c[nH]cn2)CCC1)[C@@H](C)O)[C@@H](C)O)C(=O)N[C@@H](CCC(=O)O)C(=O)N[C@@H](CO)C(=O)N[C@@H](CCCNC(=N)N)C(=O)N[C@@H](CCCNC(=N)N)C(=O)N[C@@H](C)C(=O)N[C@@H](CCC(N)=O)C(=O)N[C@@H](CC(=O)O)C(=O)N[C@@H](Cc1ccccc1)C(=O)N[C@H](C(=O)N[C@@H](CCC(N)=O)C(=O)N[C@@H](Cc1c[nH]c2ccccc12)C(=O)N[C@@H](CC(C)C)C(=O)N[C@@H](CC(C)C)C(=O)N[C@@H](CCCCNC(=O)CNC(=O)[C@H](CO)NC(=O)[C@H](CCC(=O)O)NC(=O)CNC(=O)[C@H](CO)NC(=O)CC[C@H](NC(=O)CC[C@H](NC(=O)CCCCCCCCCCCCCCCCC(=O)O)C(=O)O)C(=O)O)C(=O)N[C@H](C(N)=O)[C@@H](C)O)C(C)C` [Example 35, N^ε28-[2-[[(2S)-2-[[(2S)-4-carboxy-2-[[2-[[(2S)-2-[[(4S)-4-carboxy-4-[[(4S)-4-carboxy-4-(17-carboxyheptadecanoylamino)butanoyl]amino]butanoyl]amino]-3-hydroxypropanoyl]amino]acetyl]amino]butanoyl]amino]-3-hydroxypropanoyl]amino]acetyl]-[Acb2,His3,Leu10,Glu15, Leu27,Lys28]-Glucagon amide] (I: H-H[Ac4c]HGTFTSDLSKYLESRRAQDFVQWLLKT-NH2 / II: {C18 diacid-γGlu-γGlu}-SGESG; amide I:28-II:C; N-terminus assumed) gave a THT assay Lag time (Ex. 76) of 45 h.
